According to the NIST ThermoML archive (doi:10.1016/j.tca.2008.10.023):
Values joined by “and” are separate entries in the source; they are usually repeats but may differ in a detail not shown here. Identical values can stand only once. Numbers after ± are expanded uncertainties.

Experiment: cn = amount concentration of the nth substance listed, in mol/dm3
Conditions: 101 kPa, Liquid, c1 = 2; for speed of sound: Linear variable-path acoustic interferometer; for mass density: Pycnometric method

SMILES	speed of sound (298.15 K) [m/s]	mass density (298.15 K) [kg/m3]	speed of sound (303.15 K) [m/s]	mass density (303.15 K) [kg/m3]	speed of sound (308.15 K)	mass density (308.15 K) [kg/m3]	speed of sound (313.15 K) [m/s]	mass density (313.15 K) [kg/m3]	speed of sound (318.15 K)	mass density (318.15 K) [kg/m3]	speed of sound (323.15 K)	mass density (323.15 K) [kg/m3]
O=[N+]([O-])[O-].[K+] [potassium nitrate] + O	1562 ± 1.7	1122.9 ± 0.4	1569.4 ± 1.8	1120.6 ± 0.4	1575.8 ± 1.8 m/s and 1575 ± 1.8 m/s	1118 ± 0.4	1580 ± 1.8	1115 ± 0.4	1584.6 ± 1.8 m/s and 1584.5 ± 1.8 m/s	1111.8 ± 0.5	1588.9 ± 1.8 m/s and 1588.8 ± 1.8 m/s	1108.2 ± 0.5
[Cl-].[K+] [potassium chloride] + O	1595.2 ± 1.8	1089.1 ± 0.4	1605.9 ± 1.8	1087.5 ± 0.4	1610.2 ± 1.8 m/s	1085.6 ± 0.4	1616.4 ± 1.8	1083.4 ± 0.4	1621.4 ± 1.8 m/s	1080.9 ± 0.4	1626.5 ± 1.8 m/s	1078.3 ± 0.5
